Legend:
Type in all cases: biochemical
protease = assay: Protease activity retention in detergent use solution (4000 ppm, 5 GPG water; peptidyl substrate, glycine buffer pH 9.0); conditions: base formula, use solution at 120° F.
Description: (§1) The enzyme activities in the detergents with different phosphonate levels were tested at 4000 ppm in 5 grains per gallon (GPG) water at 120° F. with various time points collected up to 4 hours, after a use solution was generated from the detergent composition. During the tests, the samples at different time points were collected and immediately frozen in an acetone/dry ice bath and stored in −80° C. before the activity of the enzyme was evaluated. For the use of such an assay, t=0 min was the reference point for 100% enzyme activity.
(§2) Assays of enzyme activity in formulations (% retention) were conducted to simulate a presoak condition in a beaker using the chemistry, temperature, and pH conditions relevant to manual warewash or presoak applications. Enzyme activity is an indicator of the stability of the enzyme in the detergent, specifically in an aqueous use solution within a sump (which is under conditions of high pH, temperature and dilution).
The analysis by protease assay was conducted as follows. For the assays, a detergent composition was used to generate an aqueous use solution evaluated herein.
(§3) Enzyme activity under presoak or manual warewash conditions was traced quantitatively using a standard protease assay. Samples were prepared under bench top conditions, whereby the use solution from a detergent composition or detergent was obtained and maintained at a presoak or manual warewash temperature in a stirring water bath. After the time course for assessing enzyme stability is initiated, aliquots were taken at various time points and flash-frozen. A time=0 sample was prepared for each series by dissolving the detergent formulation at room temperature, mixing thoroughly, and flash freezing. Samples were thawed and diluted as necessary in an assay buffer usually for use in the protease assay. A glycine buffer at pH 9.0 is used here. The assay monitored the direct reaction of the protease on a small, commercially available peptidyl substrate, with liberation of the product providing correlation to the active enzyme content. The product was detected using a plate reader with an appreciable dynamic range (upper absorbance limit of the instrument >3.5). Enzyme activity levels were assessed relative to a calibration curve with average values for replicate tests used to map protease stability under presoak or manual warewash use conditions. Enzyme retention at each time point was calculated as the % enzyme activity relative to the time=0 sample.

amylase = assay: Amylase activity retention in detergent use solution (4000 ppm, 5 GPG water; ethylidene substrate EPS, HEPES buffer pH 8.0); conditions: base formula
Description: as §1, §2, §3
The analysis by lipase and amylase assay was conducted similarly, except with a different substrate and buffers. For lipase activity, the substrate is p-nitrophenyl valerate, and for amylase, the substrate is an ethylidene substrate (EPS). The buffer used in lipase assay is TRIS (Tris(hydroxymethyl)aminomethane) buffer at pH 8.0, and in amylase assay HEPES (4-(2-hydroxyethyl)-1-piperazineethanesulfonic acid) buffer at pH 8.0.

[1] = test system: enzyme (protease, amylase, lipase); assay: Overall effects of phosphonates on enzyme activity (Table 3); conditions: overall effect of the phosphonate on enzyme activity in the detergent use solution
Description: as §1, §2
The relative enzyme activities in a use solution of the tested detergent compositions containing a different phosphonate at different concentrations over a period time are listed in Table 4A-Table 4E, Table 5A-Table 5E, and Table 6A-Table 6F.

## Polyamino Polyether Methylene Phosphonic Acid [PAPEMP]
protease; phosphonate 0.3 wt-%, lower half of Table 4A, time 5
  Relative Protease Enzyme Activity: 107.31%
protease; phosphonate 0.3 wt-%, lower half of Table 4A, time 20
  Relative Protease Enzyme Activity: 105.51%
protease; phosphonate 0.3 wt-%, lower half of Table 4A, time 90
  Relative Protease Enzyme Activity: 96.21%
protease; phosphonate 0.3 wt-%, lower half of Table 4A, time 120
  Relative Protease Enzyme Activity: 99.48%
protease; phosphonate 0.3 wt-%, lower half of Table 4A, time 150, unit not given
  Relative Protease Enzyme Activity: 93.74%
protease; phosphonate 0.3 wt-%, lower half of Table 4A, time 210
  Relative Protease Enzyme Activity: 92.79%
protease; phosphonate 0.3 wt-%, lower half of Table 4A, time '0'
  Relative Protease Enzyme Activity: 100.00%
protease; phosphonate 0.3 wt-%, lower half of Table 4A, time '40'
  Relative Protease Enzyme Activity: 100.17%
protease; phosphonate 0.3 wt-%, lower half of Table 4A, time 'Blank'
  Relative Protease Enzyme Activity: 100.00%
protease; phosphonate 0.3 wt-%, lower half of Table 4A, time row printed '10'
  Relative Protease Enzyme Activity: 109.98%
protease; phosphonate 0.3 wt-%, lower half of Table 4A, time row printed '60'
  Relative Protease Enzyme Activity: 89.50%
protease; phosphonate 0.3 wt-%, lower half of Table 4A, time row printed '180'
  Relative Protease Enzyme Activity: 86.60%
protease; phosphonate 0.6 wt-%, time 0 min
  Relative Protease Enzyme Activity: 100.00%
protease; phosphonate 0.6 wt-%, time 5 min
  Relative Protease Enzyme Activity: 98.49%
protease; phosphonate 0.6 wt-%, time 10 min
  Relative Protease Enzyme Activity: 96.69%
protease; phosphonate 0.6 wt-%, time 20 min
  Relative Protease Enzyme Activity: 93.71%
protease; phosphonate 0.6 wt-%, time 40 min
  Relative Protease Enzyme Activity: 92.60%
protease; phosphonate 0.6 wt-%, time 60 min
  Relative Protease Enzyme Activity: 92.60%
protease; phosphonate 0.6 wt-%, time 90 min
  Relative Protease Enzyme Activity: 86.28%
protease; phosphonate 0.6 wt-%, time 120 min
  Relative Protease Enzyme Activity: 88.30%
protease; phosphonate 0.6 wt-%, time 150 min
  Relative Protease Enzyme Activity: 89.66%
protease; phosphonate 0.6 wt-%, time 180 min
  Relative Protease Enzyme Activity: 86.90%
protease; phosphonate 0.6 wt-%, time 210 min
  Relative Protease Enzyme Activity: 87.49%
protease; phosphonate 0.6 wt-%, time 240 min
  Relative Protease Enzyme Activity: 86.53%
protease; phosphonate at 0.1% elemental phosphorus, time 0 min
  Relative Protease Enzyme Activity: 100.00%
protease; phosphonate at 0.1% elemental phosphorus, time 5 min
  Relative Protease Enzyme Activity: 95.74%
protease; phosphonate at 0.1% elemental phosphorus, time 10 min
  Relative Protease Enzyme Activity: 95.47%
protease; phosphonate at 0.1% elemental phosphorus, time 20 min
  Relative Protease Enzyme Activity: 92.78%
protease; phosphonate at 0.1% elemental phosphorus, time 40 min
  Relative Protease Enzyme Activity: 86.55%
protease; phosphonate at 0.1% elemental phosphorus, time 60 min
  Relative Protease Enzyme Activity: 87.49%
protease; phosphonate at 0.1% elemental phosphorus, time 90 min
  Relative Protease Enzyme Activity: 86.61%
protease; phosphonate at 0.1% elemental phosphorus, time 120 min
  Relative Protease Enzyme Activity: 86.34%
protease; phosphonate at 0.1% elemental phosphorus, time 150 min
  Relative Protease Enzyme Activity: 84.01%
protease; phosphonate at 0.1% elemental phosphorus, time 180 min
  Relative Protease Enzyme Activity: 71.92%
protease; phosphonate at 0.1% elemental phosphorus, time 210 min
  Relative Protease Enzyme Activity: 80.74%
protease; phosphonate at 0.1% elemental phosphorus, time 240 min
  Relative Protease Enzyme Activity: 79.08%
amylase; phosphonate 0.3 wt-%, use solution at 120° F., time 0 min
  Relative Amylase Enzyme Activity: 45.92%
amylase; phosphonate 0.3 wt-%, use solution at 120° F., time 5 min
  Relative Amylase Enzyme Activity: 100.00%
amylase; phosphonate 0.3 wt-%, use solution at 120° F., time 10 min
  Relative Amylase Enzyme Activity: 101.33%
amylase; phosphonate 0.3 wt-%, use solution at 120° F., time 20 min
  Relative Amylase Enzyme Activity: 101.28%
amylase; phosphonate 0.3 wt-%, use solution at 120° F., time 40 min
  Relative Amylase Enzyme Activity: 89.91%
amylase; phosphonate 0.3 wt-%, use solution at 120° F., time 60 min
  Relative Amylase Enzyme Activity: 93.07%
amylase; phosphonate 0.3 wt-%, use solution at 120° F., time 90 min
  Relative Amylase Enzyme Activity: 89.58%
amylase; phosphonate 0.3 wt-%, use solution at 120° F., time 120 min
  Relative Amylase Enzyme Activity: 89.74%
amylase; phosphonate 0.3 wt-%, use solution at 120° F., time 150 min
  Relative Amylase Enzyme Activity: 92.85%
amylase; phosphonate 0.3 wt-%, use solution at 120° F., time 180 min
  Relative Amylase Enzyme Activity: 87.45%
amylase; phosphonate 0.3 wt-%, use solution at 120° F., time 210 min
  Relative Amylase Enzyme Activity: 93.95%
amylase; phosphonate 0.3 wt-%, use solution at 120° F., time 240 min
  Relative Amylase Enzyme Activity: 108.16%
amylase; phosphonate 0.6 wt-%, use solution at 120º F., time 0 min
  Relative Amylase Enzyme Activity: 100.00%
amylase; phosphonate 0.6 wt-%, use solution at 120º F., time 5 min
  Relative Amylase Enzyme Activity: 91.71%
amylase; phosphonate 0.6 wt-%, use solution at 120º F., time 10 min
  Relative Amylase Enzyme Activity: 99.05%
amylase; phosphonate 0.6 wt-%, use solution at 120º F., time 20 min
  Relative Amylase Enzyme Activity: 94.55%
amylase; phosphonate 0.6 wt-%, use solution at 120º F., time 40 min
  Relative Amylase Enzyme Activity: 97.22%
amylase; phosphonate 0.6 wt-%, use solution at 120º F., time 60 min
  Relative Amylase Enzyme Activity: 97.94%
amylase; phosphonate 0.6 wt-%, use solution at 120º F., time 90 min
  Relative Amylase Enzyme Activity: 101.28%
amylase; phosphonate 0.6 wt-%, use solution at 120º F., time 120 min
  Relative Amylase Enzyme Activity: 99.25%
amylase; phosphonate 0.6 wt-%, use solution at 120º F., time 150 min
  Relative Amylase Enzyme Activity: 105.34%
amylase; phosphonate 0.6 wt-%, use solution at 120º F., time 180 min
  Relative Amylase Enzyme Activity: 98.44%
amylase; phosphonate 0.6 wt-%, use solution at 120º F., time 210 min
  Relative Amylase Enzyme Activity: 101.64%
amylase; phosphonate 0.6 wt-%, use solution at 120º F., time 240 min
  Relative Amylase Enzyme Activity: 96.02%
amylase; phosphonate at 0.1% elemental phosphorus level, use solution at 120º F., time 0 min
  Relative Amylase Enzyme Activity: 100.00%
amylase; phosphonate at 0.1% elemental phosphorus level, use solution at 120º F., time 5 min
  Relative Amylase Enzyme Activity: 85.10%
amylase; phosphonate at 0.1% elemental phosphorus level, use solution at 120º F., time 10 min
  Relative Amylase Enzyme Activity: 95.50%
amylase; phosphonate at 0.1% elemental phosphorus level, use solution at 120º F., time 20 min
  Relative Amylase Enzyme Activity: 96.02%
amylase; phosphonate at 0.1% elemental phosphorus level, use solution at 120º F., time 40 min
  Relative Amylase Enzyme Activity: 91.46%
amylase; phosphonate at 0.1% elemental phosphorus level, use solution at 120º F., time 60 min
  Relative Amylase Enzyme Activity: 97.42%
amylase; phosphonate at 0.1% elemental phosphorus level, use solution at 120º F., time 90 min
  Relative Amylase Enzyme Activity: 89.60%
amylase; phosphonate at 0.1% elemental phosphorus level, use solution at 120º F., time 120 min
  Relative Amylase Enzyme Activity: 99.26%
amylase; phosphonate at 0.1% elemental phosphorus level, use solution at 120º F., time 150 min
  Relative Amylase Enzyme Activity: 101.88%
amylase; phosphonate at 0.1% elemental phosphorus level, use solution at 120º F., time 180 min
  Relative Amylase Enzyme Activity: 91.85%
amylase; phosphonate at 0.1% elemental phosphorus level, use solution at 120º F., time 210 min
  Relative Amylase Enzyme Activity: 99.00%
amylase; phosphonate at 0.1% elemental phosphorus level, use solution at 120º F., time 240 min
  Relative Amylase Enzyme Activity: 96.59%
[1]
  Stability (effects on enzyme activity): Yes
